Legend:
A549 = assay: Concentration required for growth inhibition of human lung cancer cells (A549); format: functional
NIH 3T3 (Mus musculus) = assay: Ratio of the peak heights normalized to the peak of clotrimazole as a reference was a measure of intracellular [Ca2+] stores depletion in NIH 3T3 cell
DU-145 = assay: Concentration required for growth inhibition of human prostate cancer cells (DU145) was determined; format: functional, cell-based

| SMILES | GI50 (A549) | IC50 (DU-145) | Ratio (NIH 3T3 (Mus musculus)) |
| --- | --- | --- | --- |
| O=S(=O)(Nc1ccccc1)c1ccc(Br)cc1 | 30 µM | – | 0.38 |
| COc1ccc(S(=O)(=O)Nc2ccccc2)cc1 | 16 µM | – | 0.63 |
| CC(=O)Nc1ccc(S(=O)(=O)Nc2ccc(C)c(O)c2)cc1 | 48 µM | – | 0.19 |
| Cc1ccc(NS(=O)(=O)c2ccc(Br)cc2)cc1O | 20 µM | – | 0.27 |
| O=S(=O)(Nc1ccccc1)c1ccc(-c2ccccc2)cc1 | 17 µM | – | 1.37 |
| Cc1ccc(NS(=O)(=O)c2ccc(C(C)(C)C)cc2)cc1O | 6 µM | – | 1.12 |
| O=S(=O)(Nc1ccccc1)c1ccc(I)cc1 | 23 µM | – | 0.87 |
| CC(C)(C)c1ccc(O)c(C2(c3ccccc3)C(=O)Nc3ccccc32)c1 (stereo unspecified) | 3 µM | 2.49 µM | 1.1 |
| Cc1ccc(NS(=O)(=O)c2ccc(C(C)(C)C)cc2)cc1 | 11 µM | – | 1.11 |
| Cc1ccc(NS(=O)(=O)c2ccc(I)cc2)cc1O | 15 µM | – | 0.45 |
| Cc1ccc(NS(=O)(=O)c2ccc(C(C)(C)C)cc2)c(O)c1 | 8 µM | – | 1.44 |
| Cc1cccc(NS(=O)(=O)c2ccc(C(C)(C)C)cc2)c1 | 80 µM | – | 0.95 |
| Cc1ccc(NS(=O)(=O)c2ccc(Oc3ccccc3)cc2)cc1O | 7 µM | – | 1.1 |
| Cc1cc(C2(c3ccccc3)C(=O)Nc3ccccc32)c(NS(=O)(=O)c2ccc(-c3ccccc3)cc2)cc1O (stereo unspecified) | 4 µM | – | 0 |
| O=C1Nc2ccccc2C1(c1ccccc1)c1ccccc1 | 13 µM | 12.5 µM | 0.87 |
| O=S(=O)(Nc1ccccc1)c1ccccc1 [PHENYL(PHENYLSULFONYL)AMINE] | > 80 µM | – | 0 |

Now from value to compound, other results behind:

| GI50 (A549) | IC50 (DU-145) | SMILES | Ratio (NIH 3T3 (Mus musculus)) |
| --- | --- | --- | --- |
| 12 µM | – | CC(C)(C)c1ccc(S(=O)(=O)Nc2cccc(O)c2)cc1 | 0.55 |
| 13 µM | – | CC(C)(C)c1ccc(S(=O)(=O)Nc2ccccc2O)cc1 | 1.17 |
| 9 µM | – | Cc1ccc(NS(=O)(=O)c2ccc(-c3ccccc3)cc2)cc1O | 0.72 |
| 14 µM | – | CC(C)(C)c1ccc(S(=O)(=O)Nc2ccc(O)cc2)cc1 | 0.33 |
| > 20 µM | – | Cc1cc(O)c(NS(=O)(=O)c2ccc(C(C)(C)C)cc2)cc1C1(c2ccccc2)C(=O)Nc2ccccc21 (stereo unspecified) | 0.44 |
| > 80 µM | – | Cc1ccccc1NS(=O)(=O)c1ccc(C(C)(C)C)cc1 | 0.49 |
| 51 µM | – | COc1ccc(S(=O)(=O)Nc2ccc(C)c(O)c2)cc1 | 0.12 |
| 16 µM | – | CC(C)(C)c1ccc(S(=O)(=O)Nc2ccccc2)cc1 | 1.44 |
| 30 µM | – | CN(c1ccccc1)S(=O)(=O)c1ccc(C(C)(C)C)cc1 | 0.14 |
| 52 µM | – | O=[N+]([O-])c1ccc(S(=O)(=O)Nc2ccccc2)cc1 | 0.13 |
| 29 µM | – | Cc1ccc(NS(=O)(=O)c2ccc([N+](=O)[O-])cc2)cc1O | 0.14 |
| 5 µM | – | Cc1cc(C2(c3ccccc3)C(=O)Nc3ccccc32)c(NS(=O)(=O)c2ccc(Oc3ccccc3)cc2)cc1O (stereo unspecified) | 0 |
| 0.8 µM | 1.08 µM | Cc1cc(C2(c3ccccc3)C(=O)Nc3ccccc32)c(NS(=O)(=O)c2ccc(C(C)(C)C)cc2)cc1O (stereo unspecified) | 1.06 |

From ChEMBL document CHEMBL1138771, “Novel arylsulfoanilide-oxindole hybrid as an anticancer agent that inhibits translation initiation” (J Med Chem, 2004)
